From publication PMC6073568, “Efficient Lead Finding, Activity Enhancement and Preliminary Selectivity Control of Nuclear Receptor Ligands Bearing a Phenanthridinone Skeleton” (International Journal of Molecular Sciences, 2018)

Tests used:
LXRα = biological target: T1, LXRα (Homo sapiens, UniProt Q13133); assay: LXRα reporter gene assay in HEK293; type: cell-based; conditions: read-out: LXRα antagonistic activity (IC50)
T1 construct: CMX-GAL4N-hLXRα-LBD; expressed in transfected cells; host or cells: HEK293
T1 sequence (Q13133 209-447 limits assumed): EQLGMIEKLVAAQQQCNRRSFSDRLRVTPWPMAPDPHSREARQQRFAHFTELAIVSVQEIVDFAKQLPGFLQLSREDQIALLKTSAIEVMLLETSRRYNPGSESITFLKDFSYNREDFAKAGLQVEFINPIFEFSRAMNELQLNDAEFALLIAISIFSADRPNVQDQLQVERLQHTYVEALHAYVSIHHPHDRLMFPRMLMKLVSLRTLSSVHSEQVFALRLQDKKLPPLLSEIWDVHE

AR = biological target: T2, AR (Homo sapiens, UniProt P10275); assay: AR reporter gene assay in HEK293; type: cell-based; conditions: reporter gene assay, HEK293; agonist dihydrotestosterone 0.3 nM; read-out: AR antagonistic activity (IC50), AR reporter gene
T2 sequence (P10275 1-920): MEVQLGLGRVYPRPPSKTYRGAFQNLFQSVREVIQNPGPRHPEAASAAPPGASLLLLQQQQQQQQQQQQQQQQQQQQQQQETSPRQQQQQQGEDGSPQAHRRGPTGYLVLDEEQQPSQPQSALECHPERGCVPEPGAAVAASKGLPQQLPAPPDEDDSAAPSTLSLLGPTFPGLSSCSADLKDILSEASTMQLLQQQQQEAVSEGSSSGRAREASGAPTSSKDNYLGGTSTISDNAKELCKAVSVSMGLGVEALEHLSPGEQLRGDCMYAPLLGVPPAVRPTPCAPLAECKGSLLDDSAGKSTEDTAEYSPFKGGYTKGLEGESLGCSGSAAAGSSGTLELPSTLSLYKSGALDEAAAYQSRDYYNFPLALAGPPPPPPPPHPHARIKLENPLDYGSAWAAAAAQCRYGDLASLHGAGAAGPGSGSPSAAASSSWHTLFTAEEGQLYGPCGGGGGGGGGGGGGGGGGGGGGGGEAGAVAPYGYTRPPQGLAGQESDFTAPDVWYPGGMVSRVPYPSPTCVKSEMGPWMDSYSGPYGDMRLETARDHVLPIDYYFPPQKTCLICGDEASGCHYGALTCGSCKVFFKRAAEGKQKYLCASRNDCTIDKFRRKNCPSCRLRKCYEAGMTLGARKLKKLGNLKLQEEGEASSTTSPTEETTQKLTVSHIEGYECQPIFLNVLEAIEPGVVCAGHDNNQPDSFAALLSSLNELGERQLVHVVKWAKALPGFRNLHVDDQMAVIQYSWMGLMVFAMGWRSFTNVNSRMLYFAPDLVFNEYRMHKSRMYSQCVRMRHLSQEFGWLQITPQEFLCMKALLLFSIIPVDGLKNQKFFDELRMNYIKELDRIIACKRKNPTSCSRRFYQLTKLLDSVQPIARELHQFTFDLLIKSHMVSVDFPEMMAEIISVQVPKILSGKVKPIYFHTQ

RORα = biological target: T3, RORα (Homo sapiens, UniProt P35398); conditions: reporter gene assay, HEK293; read-out: RORα inverse agonistic activity (IC50); cited from earlier work
T3 construct: expressed in transfected cells; host or cells: HEK293
T3 sequence (P35398 1-523): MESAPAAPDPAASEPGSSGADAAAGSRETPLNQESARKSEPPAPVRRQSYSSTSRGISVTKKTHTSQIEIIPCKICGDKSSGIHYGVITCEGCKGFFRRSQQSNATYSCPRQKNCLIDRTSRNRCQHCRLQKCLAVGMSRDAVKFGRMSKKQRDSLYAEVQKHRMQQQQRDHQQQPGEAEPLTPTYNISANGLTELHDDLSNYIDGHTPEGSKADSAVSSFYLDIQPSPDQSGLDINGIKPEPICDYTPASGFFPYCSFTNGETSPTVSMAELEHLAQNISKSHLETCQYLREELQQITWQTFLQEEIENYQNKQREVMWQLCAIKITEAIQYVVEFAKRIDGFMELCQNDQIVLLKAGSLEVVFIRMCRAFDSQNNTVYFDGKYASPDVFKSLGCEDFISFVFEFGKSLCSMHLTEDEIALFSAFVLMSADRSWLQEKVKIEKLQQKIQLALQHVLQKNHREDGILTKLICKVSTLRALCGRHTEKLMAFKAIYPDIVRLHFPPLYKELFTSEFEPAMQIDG

RORβ = biological target: T4, RORβ (Homo sapiens, UniProt Q92753); conditions: reporter gene assay, HEK293; read-out: RORβ inverse agonistic activity (IC50); cited from earlier work
T4 construct: expressed in transfected cells; host or cells: HEK293
T4 sequence (Q92753 1-459 isoform Q92753-1): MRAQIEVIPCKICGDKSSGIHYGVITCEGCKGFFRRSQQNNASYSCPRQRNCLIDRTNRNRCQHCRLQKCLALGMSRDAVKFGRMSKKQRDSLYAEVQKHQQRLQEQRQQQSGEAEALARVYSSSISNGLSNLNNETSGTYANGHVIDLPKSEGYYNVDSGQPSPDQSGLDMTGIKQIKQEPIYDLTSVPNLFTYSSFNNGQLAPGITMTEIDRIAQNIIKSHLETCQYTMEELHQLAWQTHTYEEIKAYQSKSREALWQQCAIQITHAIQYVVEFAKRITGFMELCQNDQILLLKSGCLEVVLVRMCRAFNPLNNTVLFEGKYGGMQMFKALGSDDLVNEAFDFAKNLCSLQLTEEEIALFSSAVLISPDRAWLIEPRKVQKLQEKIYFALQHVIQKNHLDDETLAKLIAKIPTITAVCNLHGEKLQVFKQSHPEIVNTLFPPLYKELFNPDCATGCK

RORγ = biological target: T5, RORγ (Homo sapiens, UniProt P51449); conditions: reporter gene assay, HEK293; read-out: RORγ inverse agonistic activity (IC50); cited from earlier work
T5 construct: expressed in transfected cells; host or cells: HEK293
T5 sequence (P51449 1-518): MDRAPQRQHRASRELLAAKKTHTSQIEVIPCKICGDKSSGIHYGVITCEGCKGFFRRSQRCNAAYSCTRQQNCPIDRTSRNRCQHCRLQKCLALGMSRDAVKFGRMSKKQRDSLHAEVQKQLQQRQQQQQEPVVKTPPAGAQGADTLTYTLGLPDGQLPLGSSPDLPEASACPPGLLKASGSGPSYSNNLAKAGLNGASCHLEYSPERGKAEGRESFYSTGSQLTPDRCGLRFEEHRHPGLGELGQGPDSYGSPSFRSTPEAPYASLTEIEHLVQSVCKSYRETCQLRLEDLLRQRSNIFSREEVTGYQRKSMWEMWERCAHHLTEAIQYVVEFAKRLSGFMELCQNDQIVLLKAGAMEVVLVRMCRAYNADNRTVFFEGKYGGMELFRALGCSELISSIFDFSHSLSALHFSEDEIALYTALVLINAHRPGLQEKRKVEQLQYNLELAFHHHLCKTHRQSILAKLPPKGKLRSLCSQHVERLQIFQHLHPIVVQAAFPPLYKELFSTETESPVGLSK

Row | Compound | IC50 (LXRα) | IC50 (AR) | IC50 (RORα) | IC50 (RORβ) | IC50 (RORγ)
1 | O=c1[nH]c2ccc(C(O)(C(F)(F)F)C(F)(F)F)cc2c2ccc(F)cc12 [Compound 34] | 7.9 µM | 0.68 µM | 17 µM | 11 µM | > 20 µM
2 | O=c1[nH]c2ccc(C(O)(C(F)(F)F)C(F)(F)F)cc2c2cc(F)ccc12 [Compound 35] | 6.4 µM | 0.92 µM | 9.8 µM | 8.3 µM | 5 µM
3 | CCCc1cc(C(O)(C(F)(F)F)C(F)(F)F)cc2c1[nH]c(=O)c1ccccc12 [Compound 42] | > 20 µM | 5.4 µM | > 20 µM | 11 µM | 9.9 µM

Now from value to compound, other results behind:

Row | IC50 (LXRα) | IC50 (AR) | Compound | IC50 (RORα) | IC50 (RORβ) | IC50 (RORγ)
4 | > 20 µM | > 20 µM | COc1cc(C(O)(C(F)(F)F)C(F)(F)F)cc2c1[nH]c(=O)c1ccccc12 [Compound 39] | > 20 µM | > 20 µM | 9.6 µM
5 | > 20 µM | 14 µM | CCc1cc(C(O)(C(F)(F)F)C(F)(F)F)cc2c1[nH]c(=O)c1ccccc12 [Compound 41] | > 20 µM | > 20 µM | > 20 µM
